Experimental data as given in patent US20260308186A1, “STAT DEGRADERS AND USES THEREOF” (Recludix Pharma, Inc., priority 2023, published 2026).

What follows are compounds tested against T1, STAT3 (Homo sapiens, UniProt P40763) (assay: STAT3 Fluorescence Polarization (FP) Assay). Details: recombinant STAT3 25 nM; probe 5-FAM-GpYLPQTV-NH2 2 nM; 45 min, room temperature; read-out: STAT3 FP IC50.
T1 construct: Recombinant STAT3 protein (STAT3(G127-1722))
Format: binding
Protocol: STAT3 Fluorescence Polarization (FP) Assay
An FP assay was developed to determine IC50 values for test substances. Recombinant STAT3 protein (STAT3(G127-1722)) at 25 nM was combined with a fluorescently labeled, phosphotyrosine peptide probe (5-FAM-GpYLPQTV-NH2) at 2 nM in FP buffer (10 mM HEPES pH 7.4, 50 mM NaCl, 1 mM EDTA, 0.05% Tween 20.2 mM DTT). 50 μL of STAT3-probe mixture was added to serial diluted compounds in black, 96-well plates (Greiner BioOne 655076) to a final concentration of 1% DMSO. Reaction components were mixed, and FP was measured after 45-minute incubation at room temperature using a Tecan Spark multimode plate reader. FP signal (mP) was plotted against the log concentration of the test substances and IC50 values were calculated by nonlinear regression analysis using GraphPad Prism software. For STAT3 FP assay. A=≤100 nM; B=>100-1000 nM; C=>1-10 μM; and D=>10 μM.

T1 sequence (P40763 127-722 limits assumed): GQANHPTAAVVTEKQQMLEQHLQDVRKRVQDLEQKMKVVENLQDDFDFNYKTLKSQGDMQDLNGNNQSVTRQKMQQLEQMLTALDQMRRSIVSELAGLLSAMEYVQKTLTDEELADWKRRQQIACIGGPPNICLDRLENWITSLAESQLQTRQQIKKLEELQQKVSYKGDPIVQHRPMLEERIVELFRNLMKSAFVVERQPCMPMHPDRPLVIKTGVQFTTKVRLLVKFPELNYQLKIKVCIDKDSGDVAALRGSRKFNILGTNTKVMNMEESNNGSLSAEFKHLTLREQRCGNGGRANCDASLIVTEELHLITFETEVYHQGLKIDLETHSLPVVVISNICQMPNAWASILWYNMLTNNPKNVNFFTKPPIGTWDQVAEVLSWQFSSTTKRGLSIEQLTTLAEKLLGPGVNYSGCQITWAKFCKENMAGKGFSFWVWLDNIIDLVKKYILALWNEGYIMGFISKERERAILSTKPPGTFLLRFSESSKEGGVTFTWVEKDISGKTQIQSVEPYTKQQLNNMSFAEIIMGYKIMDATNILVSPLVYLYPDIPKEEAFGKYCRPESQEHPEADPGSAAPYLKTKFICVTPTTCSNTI

Q: `CC(=O)N[C@H](C(=O)N1C[C@H](O)C[C@H]1C(=O)NCc1ccc(-c2scnc2C)cc1OCCCCN(C)C(=O)[C@@H]1CC[C@@H]2CCN(C(=O)c3noc4ccc(C)cc34)C[C@H](NC(=O)c3ccc4ccc(C(F)(F)P(=O)(O)O)cc4c3)C(=O)N21)C(C)(C)C` [Compound 31, ((7-(((5S,8S,10aR)-8-((4-(2-(((2S,4R)-1-((S)-2-acetamido-3,3-dimethylbutanoyl)-4-hydroxypyrrolidine-2-carboxamido)methyl)-5-(4-methylthiazol-5-yl)phenoxy)butyl)(methyl)carbamoyl)-3-(5-methylbenzo[d]isoxazole-3-carbonyl)-6-oxodecahydropyrrolo[1,2-a][1,5]diazocin-5-yl)carbamoyl)naphthalen-2-yl)difluoromethyl)phosphonic acid] was tested. Which IC50 did it give?
A: Its IC50 is 1 to 10 µM.

The compounds below were run against T2, pSTAT6 (Homo sapiens, UniProt P42226) (assay: MSD-pSTAT-PBMC Assay, pSTAT6 (IL-4 stimulated PBMC)). Details: compound 3 hrs, then 1 ng/mL IL-4 for 10 min, pY641-STAT6, read-out: pSTAT6 IC50.
T2 construct: pY641-STAT6 MSD read-out
T2 sequence (P42226 1-847): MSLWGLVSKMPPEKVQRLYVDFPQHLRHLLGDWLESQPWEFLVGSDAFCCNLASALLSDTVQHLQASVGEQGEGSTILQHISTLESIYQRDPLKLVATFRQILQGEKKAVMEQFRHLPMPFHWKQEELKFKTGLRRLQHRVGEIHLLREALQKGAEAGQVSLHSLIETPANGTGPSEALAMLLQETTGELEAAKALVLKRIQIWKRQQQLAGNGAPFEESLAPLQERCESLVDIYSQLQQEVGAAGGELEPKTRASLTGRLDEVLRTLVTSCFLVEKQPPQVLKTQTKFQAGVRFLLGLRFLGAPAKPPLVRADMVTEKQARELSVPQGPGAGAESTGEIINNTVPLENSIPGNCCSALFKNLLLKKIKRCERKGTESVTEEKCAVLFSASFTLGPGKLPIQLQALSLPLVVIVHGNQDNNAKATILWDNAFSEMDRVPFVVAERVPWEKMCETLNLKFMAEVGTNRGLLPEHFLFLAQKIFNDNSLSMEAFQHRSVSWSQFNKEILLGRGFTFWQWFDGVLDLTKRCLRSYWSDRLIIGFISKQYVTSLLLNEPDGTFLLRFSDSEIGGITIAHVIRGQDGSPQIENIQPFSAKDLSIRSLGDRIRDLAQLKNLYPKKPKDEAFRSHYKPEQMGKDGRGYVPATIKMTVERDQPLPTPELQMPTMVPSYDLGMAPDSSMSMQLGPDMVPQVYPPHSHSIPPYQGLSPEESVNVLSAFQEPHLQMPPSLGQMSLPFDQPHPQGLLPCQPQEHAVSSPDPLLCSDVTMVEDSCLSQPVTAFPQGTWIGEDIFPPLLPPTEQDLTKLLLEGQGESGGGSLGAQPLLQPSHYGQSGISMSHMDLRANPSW
Format: cell-based
From the text: Cryopreserved Peripheral Blood Mononuclear Cells (PBMC) are from AllCells. Recombinant Human IL-4 and IL-6 are from Peprotech. Mouse monoclonal anti-STAT3 antibody, rabbit monoclonal anti-pY705-STAT3 antibody, rabbit monoclonal Anti-pY641-STAT6 antibody, and lysis buffer are from Cell Signaling Technology (CST). Mouse monoclonal anti-STAT6 antibody is from BioLegend. Assay plates, blocker, and anti-rabbit secondary antibody are from Meso Scale Discovery (MSD).
Cryopreserved PBMCs were thawed out and allowed to recover overnight in IMDM+10% heat-inactivated FBS prior to plating 50,000 (STAT3) or 25,000 (STAT6) cells per well in 96-well U-bottom tissue culture plates. Cells were treated with compound for 3 hrs. then stimulated with 10 ng/mL IL-6 (STAT3) or 1 ng/mL IL-4 (STAT6) for 10 min. Cells were then spun down and washed with ice-cold PBS prior to lysing the cell pellet with 1× lysis buffer (CST) with 1×HALT protease and phosphatase inhibitor cocktail (Thermo). Lysates were transferred to and incubated overnight at 4° C. with shaking in QuickPlex 96-well high bind assay plates (MSD) pre-coated overnight with 30 μL per well of 0.6 μg/mL mouse monoclonal anti-STAT3 antibody (STAT3) or 2 μg/mL mouse monoclonal anti-STAT6 antibody (STAT6) in 1×PBS, and pre-blocked for 1 hour with 3% Blocker-A (MSD). Captured protein in the assay plates were then washed and probed with 25 μL per well of 0.25 μg/ml rabbit monoclonal anti-pY705-STAT3 antibody (STAT3) or 0.18 μg/ml rabbit monoclonal Anti-pY641-STAT6 antibody (STAT6) in 1% Blocker-A for 1 hour at room temperature with shaking, then washed and probed with 25 ul per well of 1 ug/ml Sulfo-TAG Labeled Goat Anti-Rabbit Antibody (MSD) in 1% Blocker-A for 1 hour at room temperature with shaking. Assay plates were then washed and 150 μL of 1× Read Buffer-T (MSD) was added to each well prior to reading on an SQ120 MSD Plate Reader. Assay signal from each sample was subtracted by the signal from unstimulated control wells and normalized to DMSO control wells. IC50 values were calculated using Graph Pad Prism Dose-Response Nonlinear Regression with variable slope. For both pSTAT3 and pSTAT6 A=≤100 nM; B=>100-1000 nM; C=>1000-3000 nM; and D=>3 μM.

Q: Which IC50 does the source give for `Cc1ccc2onc(C(=O)N3CC[C@H]4CC[C@@H](C(=O)N(C)CCCCCCC#Cc5cccc6c5CN(C5CCC(=O)NC5=O)C6=O)N4C(=O)[C@@H](NC(=O)c4ccc5ccc(C(F)(F)P(=O)(O)OCCSC(=O)C(C)(C)C)cc5c4)C3)c2c1` (stereo partly drawn) [Compound 17, S-(2-((((7-(((5S,8S,10aR)-8-((8-(2-(2,6-dioxopiperidin-3-yl)-1-oxoisoindolin-4-yl)oct-7-yn-1-yl)(methyl)carbamoyl)-3-(5-methylbenzo[d]isoxazole-3-carbonyl)-6-oxodecahydropyrrolo[1,2-a][1,5]diazocin-5-yl)carbamoyl)naphthalen-2-yl)difluoromethyl)(hydroxy)phosphoryl)oxy)ethyl) 2,2-dimethylpropanethioate] here?
A: Its IC50 is > 3 µM.

Q: `Cc1ccc2onc(C(=O)N3CC[C@H]4CC[C@@H](C(=O)N(C)CCCCCCC#Cc5cccc6c5CN(C5CCC(=O)NC5=O)C6=O)N4C(=O)[C@@H](NC(=O)c4ccc5ccc(C(F)(F)P(=O)(OCCSC(=O)C(C)(C)C)OCCSC(=O)C(C)(C)C)cc5c4)C3)c2c1` (stereo partly drawn) [Compound 18, S,S′-(((((7-(((5S,8S,10aR)-8-((8-(2-(2,6-dioxopiperidin-3-yl)-1-oxoisoindolin-4-yl)oct-7-yn-1-yl)(methyl)carbamoyl)-3-(5-methylbenzo[d]isoxazole-3-carbonyl)-6-oxodecahydropyrrolo[1,2-a][1,5]diazocin-5-yl)carbamoyl)naphthalen-2-yl)difluoromethyl)phosphoryl)bis(oxy))bis(ethane-2,1-diyl)) bis(2,2-dimethylpropanethioate)] was tested. Which IC50 did it give?
A: The IC50 was < 0.1 µM.

Q: Which IC50 does the source give for `Cc1ccc2onc(C(=O)N3CC[C@H]4CC[C@@H](C(=O)N(C)CCCCCCC#Cc5cccc6c5CN(C5CCC(=O)NC5=O)C6=O)N4C(=O)[C@@H](NC(=O)c4ccc5ccc(C(F)(F)P(=O)(OCOC(=O)OC(C)C)OCOC(=O)OC(C)C)cc5c4)C3)c2c1` (stereo partly drawn) [Compound 19, ((((7-(((5S,8S,10aR)-8-((8-(2-(2,6-dioxopiperidin-3-yl)-1-oxoisoindolin-4-yl)oct-7-yn-1-yl)(methyl)carbamoyl)-3-(5-methylbenzo[d]isoxazole-3-carbonyl)-6-oxodecahydropyrrolo[1,2-a][1,5]diazocin-5-yl)carbamoyl)naphthalen-2-yl)difluoromethyl)phosphoryl)bis(oxy))bis(methylene) diisopropyl bis(carbonate)] here?
A: The IC50 was < 0.1 µM.

Q: Which IC50 does the source give for `Cc1ccc2onc(C(=O)N3CC[C@H]4CC[C@@H](C(=O)N(C)CCCCCCC#Cc5cccc6c5CN(C5CCC(=O)NC5=O)C6=O)N4C(=O)[C@@H](NC(=O)c4ccc5ccc(C(F)(F)P(=O)(O)OCOC(=O)OC(C)C)cc5c4)C3)c2c1` (stereo partly drawn) [Compound 20, ((((7-(((5S,8S,10aR)-8-((8-(2-(2,6-dioxopiperidin-3-yl)-1-oxoisoindolin-4-yl)oct-7-yn-1-yl)(methyl)carbamoyl)-3-(5-methylbenzo[d]isoxazole-3-carbonyl)-6-oxodecahydropyrrolo[1,2-a][1,5]diazocin-5-yl)carbamoyl)naphthalen-2-yl)difluoromethyl)(hydroxy)phosphoryl)oxy)methyl isopropyl carbonate] here?
A: Its IC50 is 1 to 3 µM.

Q: With `Cc1ccc2onc(C(=O)N3CC[C@H]4CC[C@@H](C(=O)N(C)CCCCCCC#Cc5cccc6c5CN(C5CCC(=O)NC5=O)C6=O)N4C(=O)[C@@H](NC(=O)c4ccc5ccc(C(F)(F)P(=O)(O)OCCSC(=O)CC(C)C)cc5c4)C3)c2c1` (stereo partly drawn) [Compound 23, S-(2-((((7-(((5S,8S,10aR)-8-((8-(2-(2,6-dioxopiperidin-3-yl)-1-oxoisoindolin-4-yl)oct-7-yn-1-yl)(methyl)carbamoyl)-3-(5-methylbenzo[d]isoxazole-3-carbonyl)-6-oxodecahydropyrrolo[1,2-a][1,5]diazocin-5-yl)carbamoyl)naphthalen-2-yl)difluoromethyl)(hydroxy)phosphoryl)oxy)ethyl) 3-methylbutanethioate] as the compound, how does the IC50 read?
A: Its IC50 is > 3 µM.

Q: `CC(=O)N[C@H](C(=O)N1C[C@H](O)C[C@H]1C(=O)NCc1ccc(-c2scnc2C)cc1OCCCCN(C)C(=O)[C@@H]1CC[C@@H]2CCN(C(=O)c3noc4ccc(C)cc34)C[C@H](NC(=O)c3ccc4ccc(C(F)(F)P(=O)(O)O)cc4c3)C(=O)N21)C(C)(C)C` [Compound 31, ((7-(((5S,8S,10aR)-8-((4-(2-(((2S,4R)-1-((S)-2-acetamido-3,3-dimethylbutanoyl)-4-hydroxypyrrolidine-2-carboxamido)methyl)-5-(4-methylthiazol-5-yl)phenoxy)butyl)(methyl)carbamoyl)-3-(5-methylbenzo[d]isoxazole-3-carbonyl)-6-oxodecahydropyrrolo[1,2-a][1,5]diazocin-5-yl)carbamoyl)naphthalen-2-yl)difluoromethyl)phosphonic acid] was tested. Which IC50 did it give?
A: The IC50 was > 3 µM.

Same assay, conditions: read-out: pSTAT6 IC50, compound 3 hrs, then 1 ng/mL IL-4 for 10 min, pY641-STAT6

Q: `CCCOC(=O)[C@H](C)NP(=O)(Cc1ccc2ccc(C(=O)N[C@H]3CN(C(=O)c4n[nH]c5ccc(C)cc45)CC[C@H]4CC[C@@H](C(=O)N(C)CCCCCCC#Cc5cccc6c5CN(C5CCC(=O)NC5=O)C6=O)N4C3=O)cc2c1)Oc1ccccc1` (stereo partly drawn) [Compound 16, propyl (((7-(((5S,8S,10aR)-8-((8-(2-(2,6-dioxopiperidin-3-yl)-1-oxoisoindolin-4-yl)oct-7-yn-1-yl)(methyl)carbamoyl)-3-(5-methyl-1H-indazole-3-carbonyl)-6-oxodecahydropyrrolo[1,2-a][1,5]diazocin-5-yl)carbamoyl)naphthalen-2-yl)methyl)(phenoxy)phosphoryl)-L-alaninate] was tested. Which IC50 did it give?
A: The IC50 was > 3 µM.

Q: With `CCCOC(=O)[C@H](C)NP(=O)(Oc1ccccc1)C(F)c1ccc2ccc(C(=O)N[C@H]3CN(C(=O)c4noc5ccc(C)cc45)CC[C@H]4CC[C@@H](C(=O)N(C)CCCCCCC#Cc5cccc6c5CN(C5CCC(=O)NC5=O)C6=O)N4C3=O)cc2c1` (stereo partly drawn) [Compound 26, propyl (((7-(((5S,8S,10aR)-8-((8-(2-(2,6-dioxopiperidin-3-yl)-1-oxoisoindolin-4-yl)oct-7-yn-1-yl)(methyl)carbamoyl)-3-(5-methylbenzo[d]isoxazole-3-carbonyl)-6-oxodecahydropyrrolo[1,2-a][1,5]diazocin-5-yl)carbamoyl)naphthalen-2-yl)fluoromethyl)(phenoxy)phosphoryl)-L-alaninate] as the compound, how does the IC50 read?
A: The IC50 was > 3 µM.
